In PubChem BioAssay (NCI):
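Values below derive from 48-hour exposures of cells grown in 96-well plates, with endpoints linearly interpolated between the two concentrations bracketing the appropriate inhibition level. TGI marks complete inhibition of growth.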

Key:
Assay in all cases: NCI anticancer screen, dose series, 48 h
786-0 renal = system: 786-0 renal
A498 renal = system: A498 renal
A549 NSCLC = system: A549 NSCLC
ACHN renal = system: ACHN renal
BT-549 breast = system: BT-549 breast
CAKI-1 renal = system: CAKI-1 renal
CCRF-CEM leukemia = system: CCRF-CEM leukemia
COLO 205 colon = system: COLO 205 colon
DLD-1 colon = system: DLD-1 colon
DMS 114 small cell lung = system: DMS 114 small cell lung
DMS 273 small cell lung = system: DMS 273 small cell lung
DU-145 prostate = system: DU-145 prostate
EKVX NSCLC = system: EKVX NSCLC
HCC-2998 colon = system: HCC-2998 colon
HCT-116 colon = system: HCT-116 colon
HCT-15 colon = system: HCT-15 colon
HL-60(TB) leukemia = system: HL-60(TB) leukemia
HOP-18 NSCLC = system: HOP-18 NSCLC
HOP-62 NSCLC = system: HOP-62 NSCLC
HOP-92 NSCLC = system: HOP-92 NSCLC
HS 578T breast = system: HS 578T breast
HT29 colon = system: HT29 colon
IGROV1 ovarian = system: IGROV1 ovarian
K-562 leukemia = system: K-562 leukemia
KM12 colon = system: KM12 colon
LOX IMVI melanoma = system: LOX IMVI melanoma
LXFL 529 NSCLC = system: LXFL 529 NSCLC
M14 melanoma = system: M14 melanoma
M19-MEL melanoma = system: M19-MEL melanoma
MALME-3M melanoma = system: MALME-3M melanoma
MCF7 breast = system: MCF7 breast
MDA-MB-231 breast = system: MDA-MB-231 breast
MDA-MB-435 = system: MDA-MB-435
MOLT-4 leukemia = system: MOLT-4 leukemia
NCI-H226 lung = system: NCI-H226 lung
NCI-H23 lung = system: NCI-H23 lung
NCI-H460 lung = system: NCI-H460 lung
NCI-H522 lung = system: NCI-H522 lung
NCI/ADR-RES ovarian = system: NCI/ADR-RES ovarian
OVCAR-3 ovarian = system: OVCAR-3 ovarian
OVCAR-4 ovarian = system: OVCAR-4 ovarian
OVCAR-5 ovarian = system: OVCAR-5 ovarian
OVCAR-8 ovarian = system: OVCAR-8 ovarian
RPMI-8226 leukemia = system: RPMI-8226 leukemia
RXF-631 renal = system: RXF-631 renal
SF-268 CNS = system: SF-268 CNS
SF-295 CNS = system: SF-295 CNS
SF-539 CNS = system: SF-539 CNS
SK-MEL-2 melanoma = system: SK-MEL-2 melanoma
SK-MEL-28 melanoma = system: SK-MEL-28 melanoma
SK-MEL-5 melanoma = system: SK-MEL-5 melanoma
SK-OV-3 ovarian = system: SK-OV-3 ovarian
SN12C renal = system: SN12C renal
SNB-19 CNS = system: SNB-19 CNS
SNB-75 CNS = system: SNB-75 CNS
SNB-78 CNS = system: SNB-78 CNS
SR leukemia = system: SR leukemia
SW-620 colon = system: SW-620 colon
T-47D breast = system: T-47D breast
TK-10 renal = system: TK-10 renal
U251 CNS = system: U251 CNS
UACC-257 melanoma = system: UACC-257 melanoma
UACC-62 melanoma = system: UACC-62 melanoma
UO-31 renal = system: UO-31 renal
XF 498 CNS = system: XF 498 CNS

Cc1ccc(S(=O)(=O)SC(C)(C)C)cc1
TGI (786-0 renal): 31.8 µM | TGI (A498 renal): > 100 µM | TGI (A549 NSCLC): > 100 µM | TGI (ACHN renal): 98.1 µM | TGI (BT-549 breast): 42.3 µM | TGI (CAKI-1 renal): 41.4 µM | TGI (CCRF-CEM leukemia): 39.2 µM | TGI (COLO 205 colon): > 92.5 µM | TGI (DLD-1 colon): 35.3 µM | TGI (DMS 114 small cell lung): 35.6 µM | TGI (DMS 273 small cell lung): 47.5 µM | TGI (DU-145 prostate): > 100 µM | TGI (EKVX NSCLC): > 63.9 µM | TGI (HCC-2998 colon): > 58.7 µM | TGI (HCT-116 colon): 31.8 µM | TGI (HCT-15 colon): 53 µM | TGI (HL-60(TB) leukemia): 40.7 µM | TGI (HOP-18 NSCLC): > 100 µM | TGI (HOP-62 NSCLC): > 100 µM | TGI (HOP-92 NSCLC): > 100 µM | TGI (HS 578T breast): > 100 µM | TGI (HT29 colon): 34.8 µM | TGI (IGROV1 ovarian): 37.3 µM | TGI (K-562 leukemia): 54.4 µM | TGI (KM12 colon): > 91.4 µM | TGI (LOX IMVI melanoma): 60.1 µM | TGI (LXFL 529 NSCLC): > 100 µM | TGI (M14 melanoma): > 88.8 µM | TGI (M19-MEL melanoma): > 100 µM | TGI (MALME-3M melanoma): > 62 µM | TGI (MCF7 breast): 42.1 µM | TGI (MDA-MB-231 breast): 47.6 µM | TGI (MDA-MB-435): 77.6 µM | TGI (MOLT-4 leukemia): 41.5 µM | TGI (NCI-H226 lung): > 100 µM | TGI (NCI-H23 lung): 19.5 µM | TGI (NCI-H460 lung): > 100 µM | TGI (NCI-H522 lung): 32.3 µM | TGI (NCI/ADR-RES ovarian): 90.4 µM | TGI (OVCAR-3 ovarian): 39.3 µM | TGI (OVCAR-4 ovarian): 46.5 µM | TGI (OVCAR-5 ovarian): > 76 µM | TGI (OVCAR-8 ovarian): 48.3 µM | TGI (RPMI-8226 leukemia): 46.4 µM | TGI (RXF-631 renal): > 100 µM | TGI (SF-268 CNS): > 100 µM | TGI (SF-295 CNS): > 100 µM | TGI (SF-539 CNS): > 77.8 µM | TGI (SK-MEL-2 melanoma): > 88.3 µM | TGI (SK-MEL-28 melanoma): > 100 µM | TGI (SK-MEL-5 melanoma): > 100 µM | TGI (SK-OV-3 ovarian): > 100 µM | TGI (SN12C renal): > 65.2 µM | TGI (SNB-19 CNS): > 100 µM | TGI (SNB-75 CNS): > 100 µM | TGI (SNB-78 CNS): > 100 µM | TGI (SR leukemia): > 100 µM | TGI (SW-620 colon): 47.9 µM | TGI (T-47D breast): > 100 µM | TGI (TK-10 renal): > 100 µM | TGI (U251 CNS): > 100 µM | TGI (UACC-257 melanoma): 50.3 µM | TGI (UACC-62 melanoma): 48.6 µM | TGI (UO-31 renal): > 100 µM | TGI (XF 498 CNS): 32.1 µM

O=C(c1ccccc1)C1S(=O)(=O)OCCOS1(=O)=O
TGI (786-0 renal): > 100 µM | TGI (A549 NSCLC): > 100 µM | TGI (CAKI-1 renal): > 100 µM | TGI (CCRF-CEM leukemia): > 100 µM | TGI (COLO 205 colon): > 100 µM | TGI (DLD-1 colon): > 100 µM | TGI (DMS 114 small cell lung): > 100 µM | TGI (DMS 273 small cell lung): > 100 µM | TGI (EKVX NSCLC): > 100 µM | TGI (HCC-2998 colon): > 100 µM | TGI (HCT-116 colon): > 100 µM | TGI (HL-60(TB) leukemia): > 100 µM | TGI (HOP-62 NSCLC): > 100 µM | TGI (HOP-92 NSCLC): > 100 µM | TGI (HT29 colon): > 100 µM | TGI (IGROV1 ovarian): > 100 µM | TGI (K-562 leukemia): > 100 µM | TGI (KM12 colon): > 100 µM | TGI (LOX IMVI melanoma): > 100 µM | TGI (LXFL 529 NSCLC): > 100 µM | TGI (M14 melanoma): > 100 µM | TGI (M19-MEL melanoma): > 100 µM | TGI (MALME-3M melanoma): > 100 µM | TGI (NCI-H23 lung): > 100 µM | TGI (NCI-H522 lung): > 100 µM | TGI (OVCAR-3 ovarian): > 100 µM | TGI (OVCAR-4 ovarian): > 100 µM | TGI (OVCAR-8 ovarian): > 100 µM | TGI (RPMI-8226 leukemia): > 100 µM | TGI (RXF-631 renal): > 100 µM | TGI (SF-268 CNS): > 100 µM | TGI (SF-295 CNS): > 100 µM | TGI (SF-539 CNS): > 100 µM | TGI (SK-MEL-2 melanoma): > 100 µM | TGI (SK-MEL-28 melanoma): > 100 µM | TGI (SK-MEL-5 melanoma): > 100 µM | TGI (SK-OV-3 ovarian): > 100 µM | TGI (SN12C renal): > 100 µM | TGI (SNB-19 CNS): > 100 µM | TGI (SNB-75 CNS): > 100 µM | TGI (SNB-78 CNS): > 100 µM | TGI (SR leukemia): > 100 µM | TGI (SW-620 colon): > 100 µM | TGI (TK-10 renal): > 100 µM | TGI (UACC-257 melanoma): > 100 µM | TGI (UACC-62 melanoma): > 100 µM | TGI (UO-31 renal): > 100 µM | TGI (XF 498 CNS): > 100 µM
